From patent US8273701B2, “Method for diagnosing non-small cell lung carcinoma” (Trustees of Dartmouth College, priority 2005, dated 2012)

Experiments:
HOP62 [1] = conditions: HOP62 transfected with Gli1 (efficiency approximately 25%) compared with HOP62 expressing an insertless expression vector
Excerpt: Results from DTP analysis of the NCI-60 screen were independently validated with each cell line to determine which NSCLC cell lines required Hedgehog activity to proliferate.

786-0 = assay: NCI-60 panel screen, growth inhibition; type: cell-based, human; conditions: Renal
Excerpt: (§1) The NCI-60 panel of cell lines includes cells derived from melanoma, leukemia, and cancers of the lung, central nervous system, kidney, ovary, colon, breast and prostate. Advantageously, the NCI-60 panel has been screened with a plurality of compounds with the drug concentration resulting in 50% growth inhibition (GI50 determined for each cell line, so that a distinct “fingerprint” signature has been created for each small-molecule tested. Further, DNA microarray analyses have been performed on the NCI-60 panel, allowing for gene expression profile comparisons between drug-sensitive cell lines and drug-insensitive cell lines in response to a particular agent.
(§2) Results from the NCI-60 panel screen highlighted the important role that the Hedgehog pathway plays in breast and prostate cancer (Table 1). […] These findings underscore the broad importance of Hedgehog signaling in carcinogenesis.

A549 = assay: NCI-60 panel screen, growth inhibition; type: cell-based, human; conditions: NSCLC
Excerpt: as §1, §2

ACHN = assay: NCI-60 panel screen, growth inhibition; type: cell-based, human; conditions: Renal
Excerpt: as §1, §2

BT-549 = assay: NCI-60 panel screen, growth inhibition; type: cell-based, human; conditions: Breast
Excerpt: as §1, §2

CAKI-1 = assay: NCI-60 panel screen, growth inhibition; type: cell-based, human; conditions: Renal
Excerpt: as §1, §2

COLO 205 = assay: NCI-60 panel screen, growth inhibition; type: cell-based, human; conditions: Colon
Excerpt: as §1, §2

DU-145 = assay: NCI-60 panel screen, growth inhibition; type: cell-based, human; conditions: Prostate
Excerpt: as §1, §2

EKVX = assay: NCI-60 panel screen, growth inhibition; type: cell-based, human; conditions: NSCLC
Excerpt: as §1, §2

HCT-116 = assay: NCI-60 panel screen, growth inhibition; type: cell-based, human; conditions: Colon
Excerpt: as §1, §2

HCT-15 = assay: NCI-60 panel screen, growth inhibition; type: cell-based, human; conditions: Colon
Excerpt: as §1, §2

HL-60 = assay: NCI-60 panel screen, growth inhibition; type: cell-based, human; conditions: Leukemia
Excerpt: as §1, §2

HOP62 [2] = assay: NCI-60 panel screen, growth inhibition; type: cell-based, human; conditions: NSCLC
Excerpt: as §1, §2

HS 578T = assay: NCI-60 panel screen, growth inhibition; type: cell-based, human; conditions: Breast
Excerpt: as §1, §2

HT29 = assay: NCI-60 panel screen, growth inhibition; type: cell-based, human; conditions: Colon
Excerpt: as §1, §2

IGROV1 = assay: NCI-60 panel screen, growth inhibition; type: cell-based, human; conditions: Ovarian
Excerpt: as §1, §2

K-562 = assay: NCI-60 panel screen, growth inhibition; type: cell-based, human; conditions: Leukemia
Excerpt: as §1, §2

KM12 = assay: NCI-60 panel screen, growth inhibition; type: cell-based, human; conditions: Colon
Excerpt: as §1, §2

LOX IMVI = assay: NCI-60 panel screen, growth inhibition; type: cell-based, human; conditions: Melanoma
Excerpt: as §1, §2

MCF7 = assay: NCI-60 panel screen, growth inhibition; type: cell-based, human; conditions: Breast
Excerpt: as §1, §2

MDA MB-435 = assay: NCI-60 panel screen, growth inhibition; type: cell-based, human; conditions: Breast
Excerpt: as §1, §2

MDA-MB-231/ATCC = assay: NCI-60 panel screen, growth inhibition; type: cell-based, human; conditions: Breast
Excerpt: as §1, §2

MOLT-4 = assay: NCI-60 panel screen, growth inhibition; type: cell-based, human; conditions: Leukemia
Excerpt: as §1, §2

NCI-H226 = assay: NCI-60 panel screen, growth inhibition; type: cell-based, human; conditions: NSCLC
Excerpt: as §1, §2

NCI-H23 = assay: NCI-60 panel screen, growth inhibition; type: cell-based, human; conditions: NSCLC
Excerpt: as §1, §2

NCI-H322M = assay: NCI-60 panel screen, growth inhibition; type: cell-based, human; conditions: NSCLC
Excerpt: as §1, §2

NCI-H460 = assay: NCI-60 panel screen, growth inhibition; type: cell-based, human; conditions: NSCLC
Excerpt: as §1, §2

NCI-H522 = assay: NCI-60 panel screen, growth inhibition; type: cell-based, human; conditions: NSCLC
Excerpt: as §1, §2

NCI/ADR-RES = assay: NCI-60 panel screen, growth inhibition; type: cell-based, human; conditions: Breast
Excerpt: as §1, §2

OVCAR-5 = assay: NCI-60 panel screen, growth inhibition; type: cell-based, human; conditions: Ovarian
Excerpt: as §1, §2

OVCAR-8 = assay: NCI-60 panel screen, growth inhibition; type: cell-based, human; conditions: Ovarian
Excerpt: as §1, §2

PC-3 = assay: NCI-60 panel screen, growth inhibition; type: cell-based, human; conditions: Prostate
Excerpt: as §1, §2

RPMI-8226 = assay: NCI-60 panel screen, growth inhibition; type: cell-based, human; conditions: Leukemia
Excerpt: as §1, §2

RXF 393 = assay: NCI-60 panel screen, growth inhibition; type: cell-based, human; conditions: Renal
Excerpt: as §1, §2

SF-268 = assay: NCI-60 panel screen, growth inhibition; type: cell-based, human; conditions: Central Nervous System
Excerpt: as §1, §2

SF-295 = assay: NCI-60 panel screen, growth inhibition; type: cell-based, human; conditions: Central Nervous System
Excerpt: as §1, §2

SF-539 = assay: NCI-60 panel screen, growth inhibition; type: cell-based, human; conditions: Central Nervous System
Excerpt: as §1, §2

SK-MEL-28 = assay: NCI-60 panel screen, growth inhibition; type: cell-based, human; conditions: Melanoma
Excerpt: as §1, §2

SK-MEL-2 = assay: NCI-60 panel screen, growth inhibition; type: cell-based, human; conditions: Melanoma
Excerpt: as §1, §2

SK-MEL-5 = assay: NCI-60 panel screen, growth inhibition; type: cell-based, human; conditions: Melanoma
Excerpt: as §1, §2

SN12C = assay: NCI-60 panel screen, growth inhibition; type: cell-based, human; conditions: Renal
Excerpt: as §1, §2

SNB-19 = assay: NCI-60 panel screen, growth inhibition; type: cell-based, human; conditions: Central Nervous System
Excerpt: as §1, §2

SNB-75 = assay: NCI-60 panel screen, growth inhibition; type: cell-based, human; conditions: Central Nervous System
Excerpt: as §1, §2

SR = assay: NCI-60 panel screen, growth inhibition; type: cell-based, human; conditions: Leukemia
Excerpt: as §1, §2

SW-620 = assay: NCI-60 panel screen, growth inhibition; type: cell-based, human; conditions: Colon
Excerpt: as §1, §2

TK-10 = assay: NCI-60 panel screen, growth inhibition; type: cell-based, human; conditions: Renal
Excerpt: as §1, §2

U251 = assay: NCI-60 panel screen, growth inhibition; type: cell-based, human; conditions: Central Nervous System
Excerpt: as §1, §2

UACC-257 = assay: NCI-60 panel screen, growth inhibition; type: cell-based, human; conditions: Melanoma
Excerpt: as §1, §2

UACC-62 = assay: NCI-60 panel screen, growth inhibition; type: cell-based, human; conditions: Melanoma
Excerpt: as §1, §2

UO-31 = assay: NCI-60 panel screen, growth inhibition; type: cell-based, human; conditions: Renal
Excerpt: as §1, §2

Gli1 = Gli1 knock-down by siRNA in A549 cells; type: cell-based, human; conditions: A549 cells transfected with siRNA

## CC1=C2C[C@H]3[C@@H](CC=C4C[C@@H](O)CC[C@@]43C)[C@@H]2CC[C@]12O[C@@H]1C[C@H](C)CN[C@H]1[C@H]2C [Cyclopamine, cyclopamine]
HOP62 [1]
  Growth inhibitory activity in Gli1-transfected cells versus insertless expression vector: less growth inhibitory activity

## Cc1nn(-c2ccccc2)c(C)c1/C=N/N1CCN(Cc2ccccc2)CC1 [SANT1]
786-0
  −log [GI50]: 4.64
A549
  −log [GI50]: 4.00
ACHN
  −log [GI50]: 4.28
BT-549
  −log [GI50]: 4.32
CAKI-1
  −log [GI50]: 4.00
COLO 205
  −log [GI50]: 4.39
DU-145
  −log [GI50]: 4.02
EKVX
  −log [GI50]: 4.00
HCT-116
  −log [GI50]: 4.55
HCT-15
  −log [GI50]: 4.52
HL-60
  −log [GI50]: 4.54
HOP62 [2]
  −log [GI50]: 4.79
HS 578T
  −log [GI50]: 4.00
HT29
  −log [GI50]: 4.37
IGROV1
  −log [GI50]: 5.08
K-562
  −log [GI50]: 4.51
KM12
  −log [GI50]: 4.50
LOX IMVI
  −log [GI50]: 4.36
MCF7
  −log [GI50]: 4.51
MDA MB-435
  −log [GI50]: 4.00
MDA-MB-231/ATCC
  −log [GI50]: 4.65
MOLT-4
  −log [GI50]: 4.57
NCI-H226
  −log [GI50]: 4.56
NCI-H23
  −log [GI50]: 4.38
NCI-H322M
  −log [GI50]: 5.08
NCI-H460
  −log [GI50]: 4.47
NCI-H522
  −log [GI50]: 4.11
NCI/ADR-RES
  −log [GI50]: 4.30
OVCAR-5
  −log [GI50]: 4.00
OVCAR-8
  −log [GI50]: 4.00
PC-3
  −log [GI50]: 4.60
RPMI-8226
  −log [GI50]: 4.70
RXF 393
  −log [GI50]: 4.00
SF-268
  −log [GI50]: 4.42
SF-295
  −log [GI50]: 4.00
SF-539
  −log [GI50]: 4.12
SK-MEL-28
  −log [GI50]: 4.09
SK-MEL-2
  −log [GI50]: 4.22
SK-MEL-5
  −log [GI50]: 4.73
SN12C
  −log [GI50]: 4.00
SNB-19
  −log [GI50]: 4.00
SNB-75
  −log [GI50]: 4.00
SR
  −log [GI50]: 4.86
SW-620
  −log [GI50]: 4.00
TK-10
  −log [GI50]: 4.54
U251
  −log [GI50]: 4.17
UACC-257
  −log [GI50]: 4.20
UACC-62
  −log [GI50]: 4.47
UO-31
  −log [GI50]: 4.18

## SEQ ID NO:9: siRNA having the desired Gli1 knock-down activity (Sanchez, et al. (2004)) (AACUCCACAGGCAUACAGGAU; chemistry not given here)
Gli1
  Reduction of Gli1 levels: approximately 90%
